According to patent US8034941B2, “Imidazopyridazinone and imidazopyridone derivatives, the preparation thereof and their use as pharmaceutical compositions” (Boehringer Ingelheim International GmbH, priority 2003, dated 2011):

These compounds were tested against T1, DPP-IV (Homo sapiens, UniProt P27487) (assay: DPP-IV assay with Caco-2 cell extract as DPP IV source, AFC substrate, fluorescence). Details: extract of human colon carcinoma cell line Caco-2; substrate 100 μM; 60 minutes at ambient temperature; read-out: DPP IV inhibition IC50.
T1 construct: an extract of human colon carcinoma cell line Caco-2 is used as the DPP IV source; endogenous in cells; host or cells: Caco-2 (human colon carcinoma), differentiated to induce DPP-IV expression; Nonidet-P40 solubilised extract
T1 sequence (P27487 whole entry): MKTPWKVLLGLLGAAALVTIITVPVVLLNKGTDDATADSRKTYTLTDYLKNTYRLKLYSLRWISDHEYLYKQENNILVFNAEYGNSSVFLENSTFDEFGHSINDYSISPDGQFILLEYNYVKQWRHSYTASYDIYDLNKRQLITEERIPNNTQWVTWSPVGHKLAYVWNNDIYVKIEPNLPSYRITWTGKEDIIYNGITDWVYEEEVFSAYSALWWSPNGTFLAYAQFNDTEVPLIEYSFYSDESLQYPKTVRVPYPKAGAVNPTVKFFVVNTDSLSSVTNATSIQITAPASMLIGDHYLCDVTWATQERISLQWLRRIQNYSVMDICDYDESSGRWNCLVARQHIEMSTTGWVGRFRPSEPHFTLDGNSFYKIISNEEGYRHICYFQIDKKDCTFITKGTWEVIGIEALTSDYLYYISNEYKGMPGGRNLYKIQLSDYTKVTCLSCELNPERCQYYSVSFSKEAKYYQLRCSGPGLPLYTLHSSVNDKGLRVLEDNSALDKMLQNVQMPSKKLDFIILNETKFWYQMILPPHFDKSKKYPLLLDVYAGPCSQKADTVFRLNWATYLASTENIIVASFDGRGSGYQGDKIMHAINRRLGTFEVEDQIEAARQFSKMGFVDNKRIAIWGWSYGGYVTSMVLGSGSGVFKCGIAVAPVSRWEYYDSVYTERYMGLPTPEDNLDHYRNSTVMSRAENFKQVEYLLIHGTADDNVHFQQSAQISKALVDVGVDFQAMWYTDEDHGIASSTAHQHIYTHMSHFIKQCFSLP
Assay type: biochemical
Description: The cell extract was obtained from cells solubilised in a buffer (10 mM Tris HCl, 0.15 M NaCl, 0.04 t.i.u. aprotinin, 0.5% Nonidet-P40, pH 8.0) by centrifuging at 35,000 g for 30 minutes at 4° C. (to remove cell debris).
The DPP-IV assay was carried out as follows:
50 μl substrate solution (AFC; AFC is amido-4-trifluoromethylcoumarin), final concentration 100 μM, were placed in black microtitre plates. 20 μl of assay buffer (final concentrations 50 mM Tris HCl pH 7.8, 50 mM NaCl, 1% DMSO) was pipetted in. The reaction was started by adding 30 μl of solubilised Caco-2 protein (final concentration 0.14 μg of protein per well). The test substances to be investigated were typically added prediluted in 20 μl, and the volume of assay buffer was then reduced accordingly. The reaction was carried out at ambient temperature, incubating for 60 minutes. […] Blank readings (corresponding to 0% activity) were obtained in mixtures without any Caco-2 protein (volume replaced by assay buffer), control values (corresponding to 100% activity) were obtained in mixtures with no substance added.
`CC#CCn1c(N2CCCC(N)C2)nc2cnn(Cc3nc4ccccc4c4ccccc34)c(=O)c21` (centres unmarked) [1(1), 2-(3-amino-piperidin-1-yl)-3-(2-butyn-1-yl)-5-[(phenanthridin-6-yl)methyl]-3,5-dihydro-imidazo[4,5-d]pyridazin-4-one] showed an IC50 of 17 nM. Compound `CC#CCn1c(N2CCC[C@@H](N)C2)nc2c(C)nn(CC3=Nc4ccccc4Oc4ccccc43)c(=O)c21` [1(4), 2-((R)-3-amino-piperidin-1-yl)-3-(2-butyn-1-yl)-5-[(dibenzo[b,f][1,4]oxazepin-11-yl)methyl]-7-methyl-3,5-dihydro-imidazo[4,5-d]pyridazin-4-one] has an IC50 of 9 nM. Compound `CC#CCn1c(N2CCCC(N)C2)nc2cnn(Cc3cc4ccccc4c4ccccc34)c(=O)c21` (centres unmarked) [1(2), 2-(3-amino-piperidin-1-yl)-3-(2-butyn-1-yl)-5-[(phenanthren-9-yl)methyl]-3,5-dihydro-imidazo[4,5-d]pyridazin-4-one] has an IC50 of 58 nM. Work on `CC#CCn1c(N2CCC[C@@H](N)C2)nc2cnn(Cc3nc4ccc5ccccc5c4o3)c(=O)c21` [1(7), 2-((R)-3-amino-piperidin-1-yl)-3-(2-butyn-1-yl)-5-[(naphtho[2,1-d]oxazol-2-yl)methyl]-3,5-dihydro-imidazo[4,5-d]pyridazin-4-one] yielded an IC50 of 3 nM. `CC#CCn1c(N2CCC[C@@H](N)C2)nc2c(C)nn(Cc3nc4ccccc4c4ccccc34)c(=O)c21` [1(3), 2-((R)-3-amino-piperidin-1-yl)-3-(2-butyn-1-yl)-5-[(phenanthridin-6-yl)methyl]-7-methyl-3,5-dihydro-imidazo[4,5-d]pyridazin-4-one x trifluoroacetic acid] showed an IC50 of 8 nM. Work on `CC#CCn1c(N2CCC[C@@H](N)C2)nc2cnn(Cc3nc4c(ccc5ccccc54)o3)c(=O)c21` [1(8), 2-((R)-3-amino-piperidin-1-yl)-3-(2-butyn-1-yl)-5-[(naphtho[1,2-d]oxazol-2-yl)methyl]-3,5-dihydro-imidazo[4,5-d]pyridazin-4-one] yielded an IC50 of 7 nM. `CC#CCn1c(N2CCC[C@@H](N)C2)nc2cnn(Cc3nc4ccccc4c(=O)[nH]3)c(=O)c21` [1(9), 2-((R)-3-amino-piperidin-1-yl)-3-(2-butyn-1-yl)-5-[(4-oxo-3,4-dihydro-quinazolin-2-yl)methyl]-3,5-dihydro-imidazo[4,5-d]pyridazin-4-one] was tested, and the IC50 was 3 nM.

Each compound was assayed on rats (assay: Tolerability after oral administration to rats (behaviour)). Details: 10 mg/kg.
Assay type: in vivo
With `CC#CCn1c(N2CCCC(N)C2)nc2cnn(CC3=Nc4ccccc4Oc4ccccc43)c(=O)c21` (centres unmarked) [Example 1, 2-(3-amino-piperidin-1-yl)-3-(2-butyn-1-yl)-5-[(dibenzo[b,f][1,4]oxazepin-11-yl)methyl]-3,5-dihydro-imidazo[4,5-d]pyridazin-4-one] the “changes in the animals' behaviour” value was “no changes in the animals' behaviour could be detected”.
